The labels stand for the following.
B1: Antistasin: "a potent inhibitor of blood coagulation factor Xa from the Mexican leech, Haementeria officinalis" (protein, UniProt P15358 18-136, looked up)
Antistasin: QGPFGPGCEEAGCPEGSACNIITDRCTCSGVRCRMHCPHGFQRSRYGCEFCKCRLEPMKATCDISECPEGMMCSRLTNKCDCKIDINCRKTCPNGLKRDKLGCEYCECRPKRKLIPRLS

T1 sequence (P00742 235-488 limits assumed): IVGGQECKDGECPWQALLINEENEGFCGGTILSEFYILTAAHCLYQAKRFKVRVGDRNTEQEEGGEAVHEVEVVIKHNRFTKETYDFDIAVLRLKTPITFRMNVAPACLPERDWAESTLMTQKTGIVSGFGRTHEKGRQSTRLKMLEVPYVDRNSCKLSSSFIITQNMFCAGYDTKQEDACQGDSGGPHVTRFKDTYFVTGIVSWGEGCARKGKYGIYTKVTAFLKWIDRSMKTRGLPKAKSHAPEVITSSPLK
T1 sequence (P00742 41-179 partner limits assumed): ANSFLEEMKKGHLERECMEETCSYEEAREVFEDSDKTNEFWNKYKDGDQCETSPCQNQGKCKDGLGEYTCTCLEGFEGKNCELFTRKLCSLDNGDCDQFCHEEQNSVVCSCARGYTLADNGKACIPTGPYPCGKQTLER

One assay has as its system venous thrombosis.
Assay: not given
The settings on record: rabbit model of venous thrombosis; cited from earlier work.
Turning to “rTAP: "recombinant tick anticoagulant peptide (rTAP)", one of the "protein or polypeptide factor Xa inhibitors" (YNRLCIKPRDWIDECDSNEGGERAYFRNGKGGCDSFWICPEDHTGADYYSSYRDCFNACI; UniProt P17726 1-60, looked up)”, the fibrin deposition entry is listed as “reduce fibrin deposition”.

The subject of the next assay is arterial and venous thrombosis.
Assay: not given
The note with it: various models of arterial and venous thrombosis; cited from earlier work.
With B1, the antithrombotic activity result is “displays antithrombotic activity”.

The next assay concerns thrombus formation.
Assay: not given
The note with it: rat arteriovenous shunt and venous stasis models; cited from earlier work.
Take `CC(=N)N1CC[C@H](Oc2ccc([C@H](Cc3ccc4ccc(C(=N)N)cc4c3)C(=O)O)cc2)C1` [DX9065a]: the “inhibition of thrombus formation” value is “inhibition of thrombus formation was achieved at doses that had little effect on APTT”.

Another assay addresses T1, human factor Xa (Homo sapiens, UniProt P00742).
T1 construct: purchased Enzyme Research Laboratories
Kind of assay: Determination of Factor Xa IC50 (cleavage of chromogenic substrate S2765). It is filed as biochemical. The note with it: 3 pM factor Xa; compound at 1 uM. The procedure: A. Determination of Factor Xa IC50
These concentrations were achieved by diluting a 21.087 μM stock solution of factor Xa in the appropriate amount of a buffer comprising 10 […], 0.1% BSA, pH 7.4 (HBSA buffer). Accordingly, 5 μL of the compound to be tested in DMSO (2% final) is added to the factor Xa/buffer solution and incubated for 60 minutes at room temperature.
The IC50 is determined by monitoring the increase in […] at 390 nm exicitation, 460 nm emission, with a 455 nm cutoff, in a fluorometric plate reader.
On to `NS(=O)(=O)c1ccccc1-c1ccc(NC(=O)[C@@H]2CCCN2C(=O)Nc2ccc(Cl)cc2)c(F)c1`, for which the “Fxa 3 PM % Inhibition at 1 uM” value came to 46.5%.
Same read-out and setting: under `N#Cc1ccc(NC(=O)C2CCCN2C(=O)Nc2ccc(Cl)cc2)cc1` (stereo not drawn) stands 16.58%; under `O=C(Nc1ccc(-c2nnn[nH]2)cc1)C1CCCN1C(=O)Nc1ccc(Cl)cc1` (stereo not drawn), 36.64%.

The assay is the same for the next values; noted with them: 3 pM factor Xa; compound at 4 uM.
As to `Cc1cc(Cl)ccc1NC(=O)N1CCCC1C(=O)Nc1ccc(-c2ccccc2S(N)(=O)=O)cc1F` (stereo not drawn), the “Fxa 3 PM % Inhibition at 4 uM” value came to 38.88%.
For `NS(=O)(=O)c1ccccc1-c1ccc(NC(=O)C2CCCN2C(=O)Nc2cccc(Cl)c2)c(F)c1` (stereo not drawn), the “Fxa 3 PM % Inhibition at 4 uM” value is 55.97%.
As for `NS(=O)(=O)c1ccccc1-c1ccc(NC(=O)C2CCCN2C(=O)Nc2ccc(Cl)c(Cl)c2)c(F)c1` (stereo not drawn), the “Fxa 3 PM % Inhibition at 4 uM” value was 41.71%.
Consider `CC(=O)c1cccc(NC(=O)N2CCCC2C(=O)Nc2ccc(-c3ccccc3S(N)(=O)=O)cc2F)c1` (stereo not drawn), for which the “Fxa 3 PM % Inhibition at 4 uM” value was found to be 21.04%.
As to `NS(=O)(=O)c1ccccc1-c1ccc(NC(=O)C2CCCN2C(=O)Nc2ccc(C(F)(F)F)cc2)c(F)c1` (stereo not drawn), the “Fxa 3 PM % Inhibition at 4 uM” value was 25.1%.
`CCc1ccc(NC(=O)N2CCCC2C(=O)Nc2ccc(-c3ccccc3S(N)(=O)=O)cc2F)cc1` (stereo not drawn): the “Fxa 3 PM % Inhibition at 4 uM” value is 38.14%.
Still for that read-out and setting: under `COc1cccc(NC(=O)N2CCCC2C(=O)Nc2ccc(-c3ccccc3S(N)(=O)=O)cc2F)c1` (stereo not drawn) stands 36.21%.
With `NS(=O)(=O)c1ccccc1-c1ccc(NC(=O)C2CCCN2C(=O)Nc2ccccc2F)c(F)c1` (stereo not drawn), the “Fxa 3 PM % Inhibition at 4 uM” value amounted to 37.21%.
Consider `N#Cc1ccc(NC(=O)N2CCCC2C(=O)Nc2ccc(-c3ccccc3S(N)(=O)=O)cc2F)cc1` (stereo not drawn), for which the “Fxa 3 PM % Inhibition at 4 uM” value worked out at 51.86%.
For the molecule `NS(=O)(=O)c1ccccc1-c1ccc(NC(=O)C2CCCN2C(=O)Nc2cccc(C(F)(F)F)c2)c(F)c1` (stereo not drawn), the “Fxa 3 PM % Inhibition at 4 uM” value is reported as 21.61%.
As to `NS(=O)(=O)c1ccccc1-c1ccc(NC(=O)C2CCCN2C(=O)Nc2ccc(F)c(Cl)c2)c(F)c1` (stereo not drawn), the “Fxa 3 PM % Inhibition at 4 uM” value is recorded as 41.07%.
Same read-out and setting: the value for `Cc1ccc(Cl)cc1NC(=O)N1CCCC1C(=O)Nc1ccc(-c2ccccc2S(N)(=O)=O)cc1F` (stereo not drawn) was 19.84%; that for `CN(C)c1ccc(NC(=O)N2CCCC2C(=O)Nc2ccc(-c3ccccc3S(N)(=O)=O)cc2F)cc1` (stereo not drawn) was 19.93%; that for `CC(C)c1ccc(NC(=O)N2CCCC2C(=O)Nc2ccc(-c3ccccc3S(N)(=O)=O)cc2F)cc1` (stereo not drawn) was 19.22%.

The same assay, now with this note: 1 h, read-out: % at 1 uM (printed in column FXA 30 pM IC50); 30 pM factor Xa; compound at 1 uM.
Turning to `O=C(Nc1ccc(-n2ccnn2)cc1)[C@H]1C[C@@H](O)CN1C(=O)Nc1ccc(Cl)cc1`, the inhibition at 1 µM came out at 26%.
`O=C(Nc1ccc(-c2cncnc2)cc1)[C@H]1C[C@@H](O)CN1C(=O)Nc1ccc(Cl)cc1`: the inhibition at 1 µM was 32%.
Take `O=C(Nc1ccc(NC(=O)[C@H]2C[C@@H](O)CN2C(=O)Nc2ccc(Cl)cc2)cc1)C1CCCC1`: the inhibition at 1 µM was 36%.
As to `CO[C@@H]1C[C@H](C(=O)Nc2ccc(N3CCC3=O)cc2F)N(C(=O)Nc2ccc(Cl)cn2)C1`, the inhibition at 1 µM was 54%.

For the next assay, the system named is clot lysis / acute reocclusion.
Assay: not given
The settings on record: dog; cited from earlier work.
In the case of “rTAP: "recombinant tick anticoagulant peptide (rTAP)", one of the "protein or polypeptide factor Xa inhibitors" (YNRLCIKPRDWIDECDSNEGGERAYFRNGKGGCDSFWICPEDHTGADYYSSYRDCFNACI; UniProt P17726 1-60, looked up)”, the acute reocclusion result is given as “prevent acute reocclusion” and the “recombinant tissue plasminogen activator mediated clot lysis” value is given as “accelerate the recombinant tissue plasminogen activator mediated clot lysis”.

In a further assay the test system is arterial thrombosis.
Assay: not given
The note with it: canine coronary artery electrolytic lesion model; cited from earlier work.
In the case of “rTAP: "recombinant tick anticoagulant peptide (rTAP)", one of the "protein or polypeptide factor Xa inhibitors" (YNRLCIKPRDWIDECDSNEGGERAYFRNGKGGCDSFWICPEDHTGADYYSSYRDCFNACI; UniProt P17726 1-60, looked up)”, the “thrombus mass and time to occlusion” value was “reduce thrombus mass and time to occlusion”.

Source of the values: patent US7030141B2, “Inhibitors of factor Xa and other serine proteases involved in the coagulation cascade” (priority 2001, dated 2006).
